Test results from US11185593B2, “Alkylating agent for alkylating target with driver oncogene mutation” (Chiba Prefecture, priority 2013, dated 2021).
Where two headings read alike, the source gives them in different places.

Experiments:
[1] = tested on: gene sequence of the codon 12 mutation of the KRAS gene; experiment: Confirmation of alkylation of KRAS codon 12 mutation sequence, high resolution gel electrophoresis; type: biochemical; conditions: 23° C., 17 hours
Method: A 25 μM pair of two fragments (5′-[…]-3′ (SEQ ID NO: 1) and 3′-[…]-5′ (SEQ ID NO: 2)) (final volume: 50 μL) was annealed to obtain a DNA fragment. The annealed fragment was ligated to a pGEM-T easy vector manufactured by […]. Thereafter, Escherichia coli (JM109) competent cells manufactured by Promega were transformed with the obtained product, and the resulting cells were then cultured at 37° C. overnight in a plate comprising an LB medium containing 100 μg/mL ampicillin. A transformed white colony of interest was identified by colony direct PCR using a 500 nM primer set (T7: 5′-TAATACGACTCACTATAGG-3′ (SEQ ID NO: 3); and sp6: 5′-[…]-3′ (SEQ ID NO: 4)) and 10 μL of a reaction solution containing 1 U GoTaq® Green Master Mix manufactured by Promega. The following amplification cycle was applied. […]
A DNA fragment, 213 base pairs in length, the 5′-terminus of which had been labeled with Texas Red, was synthesized using the above-described plasmid and primers (sp6: 5′-ATTTAGGTGACACTATAG-3′ (SEQ ID NO: 5), and T7: 5′-[…]-3′ (SEQ ID NO: 6), with 5′-terminus labeled with Texas Red). The obtained DNA fragment, the 5′-terminus of which had been labeled with Texas Red, was purified using PCR-Clean Up Kit manufactured by Sigma, and the concentration was then determined by UV absorption. […]

LS180 cells = experiment: Cytotoxicity test, WST-8 (cell counting kit-8), 48 hours; type: cell-based, human; conditions: Homo sapiens
Method: Using LS180 colon cell line, the cells were seeded in each well of a 96-well microplate, resulting in a cell density of 3000 to 5000 cells/well, and they were then cultured overnight. On the following day, KR12 recognizing a codon 12 mutation, WT recognizing wild-type KRAS, and C12-Dp having the same structure as that of KR12, to which an alkylating agent had not been added, were each added to the cultured cells in concentrations of 1 nM, 10 nM, 30 nM, 100 nM, 300 nM, and 1 μM, and were then treated for 48 hours. Thereafter, a WST-8 reagent was added to each well, using cell counting kit-8 (DOJINDO), and the obtained mixture was then reacted for 2 hours. After that, the number of cells was counted at a wavelength of 450 nm according to a colorimetric analysis method using a microplate reader. The method of counting the number of cells comprises: 1) obtaining the mean value of the medium alone, 2) subtracting the mean value of the medium from each well, 3) obtaining the mean value of DMSO, 4) dividing the medium-subtracted value by the mean value of DMSO and then multiplying by 100, 5) obtaining the mean value of each treatment group and a standard deviation, and then preparing a graph. The calculation formula of IC50 is the following: IC50=10 (LOG (A/B)×(50−C)/(D−C)+LOG (B)), wherein A: a higher concentration of two concentrations sandwiching 50%, B: a lower concentration of two concentrations sandwiching 50%, C: inhibitory percentage at B, and D: inhibitory percentage at A.
Using colon cancer and pancreatic cancer cell lines, the cells were seeded in each well of a 96-well microplate, resulting in a cell density of 3000 to 5000 cells/well, and they were then cultured overnight. On the following day, the cells of each type were treated with KR12 recognizing a codon 12 mutation in concentrations of 1 nM, 10 nM, 30 nM, 100 nM, 300 nM, and 1 μM for 48 hours. Thereafter, a WST-8 reagent was added to each well, using cell counting kit-8, and the obtained mixture was then reacted for 2 hours. After that, the number of cells was counted at a wavelength of 450 nm according to a colorimetric analysis method using a microplate reader. The method of counting the number of cells comprises: 1) obtaining the mean value of the medium alone, 2) subtracting the mean value of the medium from each well, 3) obtaining the mean value of DMSO, 4) dividing the medium-subtracted value by the mean value of DMSO and then multiplying by 100, 5) obtaining the mean value of each treatment group and a standard deviation, and then preparing a graph. […]

[2] = tested on: active-type KRAS proteins (p21-ras proteins); experiment: Measurement of RAS activity (RAS activation assay kit); type: cell-based, human; conditions: LS180, 50 nM, 48 hours, FIG. 12A
Method: Cells (the number of cells: 2×10^6 cells/100 mm plate or 1×10^6 cells/100 mm plate) were cultured in a complete nutrient medium, and on the following day, the cultured cells were treated with 50 nM KR12 or KR13, followed by culture for 48 hours. Thereafter, the resulting cells were dissolved in a magnesium lysis buffer (MLB), and a RAS activity level was then measured using a RAS activation assay kit (Millipore, MA).

## CC(=O)Nc1cn(C)c(C(=O)Nc2cc(C(=O)NCCC(=O)Nc3cn(C)c(C(=O)Nc4cn(C)c(C(=O)Nc5cc(C(=O)Nc6cn(C)c(C(=O)NCCCC(=O)Nc7cc(C(=O)Nc8cn(C)c(C(=O)NCCC(=O)Nc9cc(C(=O)Nc%10cc(C(=O)Nc%11ccc%12[nH]c(C(=O)N%13CC(CCl)c%14c%13cc(O)c%13ccccc%14%13)cc%12c%11)n(C)c%10)n(C)c9)n8)n(C)c7)n6)n(C)c5)n4)n3)n(C)c2)n1 (centres unmarked) [KR12]
[1]; mutated KRAS sequence of AsPC-1 cells (G12D), FIG. 7B
  alkylation of the gene sequence of the codon 12 mutation of the KRAS gene: specifically induced concentration-dependent alkylation
[1]; mutated KRAS sequence of SW480 cells (G12V), FIG. 7A
  alkylation of the gene sequence of the codon 12 mutation of the KRAS gene: specifically induced concentration-dependent alkylation
LS180 cells; LS180, KRAS G12D Hetero, Table 1, read-out: KR12 IC50
  IC50: 42 nM
LS180 cells; LS180 cells, WST-8, FIG. 8, read-out: IC50
  IC50: 53 nM
[2]
  activity of the detected KRAS protein (RAS activity level): decreased
